From EPA's ToxValDB 9.5 come the findings set out here.

Usually NOAEL stands for the highest dose or exposure tested at which no adverse effect was seen. Usually LOAEL stands for the lowest dose or exposure tested at which an adverse effect was seen.

One data set relates to Oryctolagus sp. The conditions noted are these: reproduction developmental, oral, gavage, F, New Zealand.
A further data set has as its system Canidae. The conditions noted are these: for NOEL: Dog Other.
The subject of a further data set is Rattus norvegicus. The conditions noted are these: for LD50: acute, mortality.
A further data set deals with Sus scrofa. The conditions noted are these: subchronic, Not specified, no effects.
For a further data set, the system named is Oncorhynchus mykiss. The conditions noted are these: acute, mortality.
The test system of another data set is Gallus gallus. The conditions noted are these: subchronic; duration: 42 days; oral; diet; Chicken; no effects.

In brackets after ≈: the same amount, converted by molar mass. Several values for one entry are separate records, joined by “and”; a condition that tells them apart may be missing. Equal values may be shown once.

`COC(=O)[C@H](Cc1ccccc1)NC(=O)[C@H](CC(=O)O)NCCCc1ccc(OC)c(O)c1.O` displayed an NOAEL in the data set on Oryctolagus sp. (duration: 22 days, clinical signs) of 500 mg/kg-day.
Regarding `C=CO.OCCO`, the no observed adverse effect level (NOAEL) with Canidae (chronic, duration: 9 months, oral, diet, M/F, Beagle, no effects) was found to be 800 mg/kg-day.
`CC1COC(C)O1` (centres undefined) [2,4-Dimethyl-1,3-dioxolane] came in with an NOEL in the data set with Rattus norvegicus (chronic, duration: 2 years) of 2500 mg/kg-day.
Compound `Cc1ccc(C(C)C)cc1O` [Isopropyl-o-cresol] displayed an LEL with Sus scrofa (duration: 6 weeks, oral, diet, M/F) of 2000 mg/kg-day.
In the data set on Rattus norvegicus (chronic, duration: 2 years, M/F, Fischer 344, no effects), `O=C([O-])c1ccccn1.O=C([O-])c1ccccn1.O=C([O-])c1ccccn1.[Cr+3]` [Chromium picolinate] showed an NOAEL of 2400 mg/kg-day.
`CSc1nccnc1C(C)C` [Pyrazine, 2-(1-methylethyl)-3-(methylthio)-]: in the data set on Rattus norvegicus (subchronic, duration: 13 weeks, oral, diet, M/F, no effects), the NOAEL came to 1.63 mg/kg-day.
In turn, `CCO` [Ethanol] returned an LC50 with Oncorhynchus mykiss (duration: 24 hours) of 11.2 mg/mL (≈ 243 mM). The compound further had an NOAEL with Rattus norvegicus (subchronic, duration: 90 days, oral, gavage, organ weight) of 1730 mg/kg-day.
`CC(=O)c1nccs1` [2-Acetylthiazole] yielded an NOAEL with Rattus norvegicus (subchronic, duration: 90 days, oral, diet, body weight) of 50 mg/kg-day.
`SCCCCS` [1,4-Butanedithiol]: the NOAEL in the data set with Rattus norvegicus (subchronic, duration: 90 days, oral, diet, M/F, Sprague-Dawley, no effects) is 0.703 mg/kg-day (5×) and 0.705 mg/kg-day (5×).
Regarding `CC1OCCC1=O` (centres undefined) [2-Methyltetrahydrofuran-3-one], the NOAEL in the data set with Rattus norvegicus (subchronic, duration: 90 days, no effects) is 91 mg/kg-day.
In the data set with Oryctolagus sp. (duration: 13 days, mortality), `CC(C)O` [Isopropanol] had an NOAEL of 240 mg/kg-day.
As for `CCOc1ccc2c(c1)C(C)=CC(C)(C)N2` [Ethoxyquin], the NOEL in the data set on Canidae (subchronic, duration: 90 days, clinical signs) amounted to 2 mg/kg-day. For the same compound, the LC50 in the data set with Colinus virginianus (acute, oral, diet, mortality) was greater than 2420 mg/kg-day; in the data set with Oncorhynchus mykiss (duration: 96 hours), 0.018 mg/mL (≈ 0.0828 mM). Besides, the NOEC in the data set with Colinus virginianus (short-term, oral, diet) turned out to be 1500 mg/kg-day. The same compound displayed an LD50 with Rattus norvegicus (oral) of 1730 mg/kg-day.
The compound `Clc1cc(Cl)c(-c2cc(Cl)c(Cl)cc2Cl)cc1Cl` [2,2',4,4',5,5'-Hexachlorobiphenyl] yielded a no-observed-adverse-effect level (NOAEL) with Rattus norvegicus (subchronic, duration: 90 days, clinical chemistry) of 1.2 mg/kg-day.
`CSSSCc1ccco1` [2-[(Methyltrisulfanyl)methyl]furan] came in with an NOAEL with Rattus norvegicus (subchronic, duration: 90 days, oral, diet, M/F, Wistar, no effects) of 0.56 mg/kg-day.
In the case of `Oc1ccccc1` [Phenol], the NOAEL in the data set on Rattus norvegicus (developmental, duration: 10 days, oral, gavage, F, Sprague-Dawley, development) is 120 mg/kg-day; with Rattus norvegicus (reproduction developmental, duration: 10 days, oral, gavage, F, body weight), 60 mg/kg-day.
`CCC=C1OC(=O)c2ccccc21` [3-Propylidenephthalide] gave an NOAEL in the data set with Rattus norvegicus (subchronic, duration: 90 days, oral) of 5.42 mg/kg-day.
For the compound `NC(N)=NCCC[C@H](N)C(=O)O` [L-Arginine], the NOAEL in the data set on Rattus norvegicus (subchronic, duration: 13 weeks, M/F, Crj:CD, no effects) is 3.13 mg/kg-day.
Regarding `NC[C@@H]1O[C@H](O[C@H]2[C@@H](O)[C@H](O[C@@H]3[C@@H](O)[C@H](N)C[C@H](N)[C@H]3O[C@H]3O[C@H](CO)[C@@H](O)[C@H](O)[C@H]3N)O[C@@H]2CO)[C@H](N)[C@@H](O)[C@@H]1O.O=S(=O)(O)O` [Paromomycin sulfate], the NOEL in the data set on Canidae (chronic, oral) is 3.4 mg/kg-day.
In the data set on Rattus norvegicus (subchronic, duration: 90 days, oral, diet, M/F, Wistar, body weight), `[Cl][Sn][Cl]` [Stannous chloride] returned an NOAEL of 63 mg/kg-day.
For the compound `Cc1ccc(OCC(=O)N(Cc2cccs2)c2ccn[nH]2)cc1`, the NOAEL with Rattus norvegicus (reproduction developmental, oral, gavage, F, no effects) stood at 1000 mg/kg-day; in the data set with Rattus norvegicus (subchronic, duration: 13 weeks, oral, gavage, M/F, no effects), 100 mg/kg-day.
`CCOC(=O)c1ccccc1O` [Ethyl salicylate] showed an NOAEL in the data set with Rattus norvegicus (chronic, duration: 2 years, oral, growth) of 50 mg/kg-day.
In the case of `Cc1noc(C)c1Cn1cc(N2C(=O)CN(Cc3cccc(O)c3)C2=O)cn1`, in the data set on Rattus norvegicus (subchronic, duration: 13 weeks, oral, diet, no effects), the NOAEL was 100 mg/kg-day.
Consider `NCCCCN` [Putrescine], for which, in the data set on Rattus norvegicus (oral, F), the LD50 came out at 463 mg/kg.
In turn, `CC1=C(/C=C/C(C)=C/C=C/C(C)=C/C=C/C=C(C)/C=C/C=C(C)/C=C/C2=C(C)C[C@@H](O)CC2(C)C)C(C)(C)C[C@H](O)C1` [Zeaxanthin] returned a no observed adverse effect level (NOAEL) with Rattus norvegicus (reproduction developmental, oral, M/F, reproduction) of 150 mg/kg-day.
As for `Cc1occc1SC(C)CC=O` (centres undefined) [3-[(2-Methylfuran-3-yl)sulfanyl]butanal], in the data set on Rattus norvegicus (subchronic, duration: 90 days, oral, diet, M/F, no effects), the NOAEL stood at 3.76 mg/kg-day.
As to `O=[N+]([O-])[O-]` [Nitrate], the NOEL is 370 mg/kg-day in the data set with Canidae (chronic, duration: 125 days, growth) and 370 mg/kg-day with Rattus norvegicus (chronic, duration: 2 years, growth). In the data set with Sus scrofa (duration: 84 days), this compound came in with a no observed adverse effect level (NOAEL) of 410 mg/kg-day.
The compound `CC(O)C(=O)[O-].CC(O)C(=O)[O-].[Ca+2]` (centres undefined) [Calcium lactate] returned an LEL in the data set on Gallus gallus of 30000 mg/kg-day.
Turning to `CC(C)C1C2CCC1c1c(NC(=O)c3cn(C)nc3C(F)F)cccc12` (centres undefined) [Isopyrazam], the LC50 in the data set on Colinus virginianus (acute, oral, diet, mortality) stood at 1310 mg/kg-day. Besides, the LD50 is greater than 2000 mg/kg-day with Colinus virginianus (acute, oral, mortality) and 2000 mg/kg-day in the data set with Rattus norvegicus (oral). The compound also gave an NOEC with Colinus virginianus (reproduction developmental) of 32.5 mg/kg-day. Further, the NOEL in the data set with Rattus norvegicus (chronic) is 41 mg/kg-day. For the same compound, the LOAEL in the data set with Rattus norvegicus (chronic, duration: 2 years, organ weight) is 5.5 mg/kg-day. Moreover, the NOAEL with Rattus norvegicus (developmental, development) worked out at 20 mg/kg-day; with Rattus norvegicus (reproduction developmental, duration: 2 years, body weight), 8 mg/kg-day.
